Laboratory results: the SangsterLogP compilation

Experiment: method code SF-AS, from DOI: 10.1002/zfch.19780180919

COc1cccc(C(=O)NN)c1
logP: 0.4

NNC(=O)c1cccc(N)c1
logP: -0.86

NNC(=O)c1cccc(O)c1
logP: -0.08

NNC(=O)c1ccc(I)cc1
logP: 1.55

NNC(=O)c1ccc(Br)cc1
logP: 1.28

NNC(=O)c1ccc(N)cc1
logP: -0.75

NNC(=O)c1cccc([N+](=O)[O-])c1
logP: 0.23

NNC(=O)c1ccc(Cl)cc1
logP: 1.12

NNC(=O)c1ccccc1O
logP: 0.6

NNC(=O)c1ccccc1I
logP: 0.47

NNC(=O)c1cccc(I)c1
logP: 1.53

NNC(=O)c1ccc(O)cc1
logP: -0.33

Cc1ccccc1C(=O)NN
logP: 0.22

NNC(=O)c1ccccc1Br
logP: 0.26

NNC(=O)c1ccc([N+](=O)[O-])cc1
logP: 0.35

NNC(=O)c1cccc(Cl)c1
logP: 1.18

COc1ccc(C(=O)NN)cc1
logP: 0.25

NNC(=O)c1ccccc1[N+](=O)[O-]
logP: -0.54

Cc1cccc(C(=O)NN)c1
logP: 0.74

NNC(=O)c1cccc(Br)c1
logP: 1.26

Cc1ccc(C(=O)NN)cc1
logP: 0.73

NNC(=O)c1ccccc1Cl
logP: 0.14

COc1ccccc1C(=O)NN
logP: 0.25

NNC(=O)c1ccccc1N
logP: -0.18
